Measurements: US20200138081A1, “Biologically active food additive for preventing and treating acute respiratory diseases and flu” (Parapharm LLC, priority 2013, published 2020)

Assays:
Format in all cases: in vivo, human
IgM [1] = assay: Example 6 ADBH, 25(OH)D and combination, IgM (immunoturbidimetric)
Source text: (§1) The object was to study the effect of active metabolites of vitamin D, as exemplified by 25 (OH)D, on the immune status in participants, judging by the level of immunoglobulines IgG, IgA, and IgM. 32 participants in the age range between 38 and 62 (23 females and 9 males) residing in Penza had no acute diseases and were apparently healthy. The immune status was examined before the therapy started and 30 days after that. […] Immunoglobulines were detected by an immunoturbidimetric method, using an assay kit of DiaSys Diagnostic Systems (Germany).
(§2) Table 3 presents mean values (M±m) of specific antibody response for main immunoglobulin classes IgG, IgA, and IgM.

IgG [2] = assay: Example 6 ADBH, 25(OH)D and combination, IgG (immunoturbidimetric)
Source text: as §1, §2

IgM [3] = assay: Example 5 comparative effect of ingredients and additive, serum IgM
Source text: (§3) The object of the study lied in analyzing comparative effect of main ingredients of the additive (the ADBH and vitamin D, separately) on the immune system of the body by variations of the main classes of immunoglobulins IgG, IgA, and IgM in blood serum. As stated previously, IgG is the main serum immunoglobuline of a healthy human amounting to 70-75% of the whole immunoglobulin fraction. It is especially active in the immune response. The serous IgA makes up to 15-20% of the whole immunoglobulin fraction. […] The IgM immunoglobulins are capable of neutralizing foreign particles, effectively activating complement, triggering defensive response mechanisms in the body.
(§4) 29 participants, 37 to 60 years old, residing in the city of Penza and suffering from frequent catarrhal diseases were examined, and low levels of immunoglobulin reference values were uncovered. In view of the task set, immunopotentiation was administered to them. Depending on the method of immune correction, the participants were divided into three groups:1st group—nine persons took a tablet of the ADBH (150 mg) twice a day for 30 days, 2nd group—8 persons took a tablet of vitamin D3 (500 IE) twice a day for 30 days, and 3rd group—12 persons took a tablet of the proposed additive (150 mg of the ADBH and 500 IE of vitamin D3) by one tablet twice a day for 30 days.

IgA = assay: Example 5 comparative effect of ingredients and additive, serum IgA
Source text: as §3, §4

IgG [4] = assay: Example 5 comparative effect of ingredients and additive, serum IgG
Source text: as §3, §4

ARD = assay: Example 5 catamnesis, ARD during six months after the study; details: during six months after the study was over
Method: as §4
In other words, an unexpected result of the combined use of the ingredients dramatically differs from that where the ingredients are employed individually. […] The result can probably be explained by the presence of an enhancer of one ingredient of the proposed additive in the other which is on full display only when the both ingredients are used jointly.

[5] = After one-month treatment, twice a day (ADBH 150 mg, 25(OH)D 50 IE; or both in one tablet)
[6] = Before, apparently healthy participants 38 to 62 years
[7] = After, one tablet twice a day for 30 days (ADBH 150 mg; vitamin D3 500 IE; additive 150 mg ADBH + 500 IE D3)
[8] = Before, participants 37 to 60 years with frequent catarrhal diseases

| Compound | IgM, M ± m (IgM [1]; [5]) | IgM, M ± m (IgM [1]; [6]) | IgG, M ± m (IgG [2]; [5]) | IgG, M ± m (IgG [2]; [6]) | IgM, M ± m (IgM [3]; [7]) | IgM, M ± m (IgM [3]; [8]) | IgA, M ± m (IgA; [7]) | IgA, M ± m (IgA; [8]) | IgG, M ± m (IgG [4]; [7]) | IgG, M ± m (IgG [4]; [8]) | falling ill with ARD in catamnesis (ARD) |
| --- | --- | --- | --- | --- | --- | --- | --- | --- | --- | --- | --- |
| C=C1CC[C@H](O)C/C1=C/C=C1\CCC[C@]2(C)[C@@H]([C@H](C)CCCC(C)(C)O)CC[C@@H]12 [25 (OH)D] | 1.82 | 1.91 | 12.39 | 12.21 |  |  |  |  |  |  |  |
| C=C1CC[C@H](O)C/C1=C/C=C1\CCC[C@]2(C)[C@@H]([C@H](C)CCCC(C)C)CC[C@@H]12 [vitamin D3] |  |  |  |  | 1.82 | 1.91 | 1.93 | 1.81 | 12.27 | 12.41 | had those diseased |
